Activity calls are given as the source filed them. The rule behind the calls is not given here.
species: Homo sapiens; assay: Selectivity ratio of Kd for RIPK3 (unknown origin) to Kd for RIPK1 (unknown origin); conditions: not given

Compound	Selectivity ratio
CN1C(=O)[C@@H](NC(=O)c2cc3cccc(-c4ccccc4)c3[nH]2)COc2ccccc21	8

tested on: Mus musculus; assay: Protection against mTNF-alpha induced SIRS in C57BL/6J mouse assessed as increase in survival rate at 5 mg/kg preincubated for 1 hr followed by mTNF-alpha addition measured upto 60 hrs; assay type: functional; conditions: time <= 61 hrs

Compound	Activity
CN1C(=O)[C@@H](NC(=O)c2cc3cccc(-c4ccccc4)c3[nH]2)COc2ccccc21	100%

tested on: HT-29; assay: Inhibition of TSZ induced necrosomes formation in human HT-29 cells at 100 nM incubated for 6 hrs by Western blotting analysis; assay type: functional, cell-based; conditions: not given

Compound	inhibition
CN1C(=O)[C@@H](NC(=O)c2cc3cccc(-c4ccccc4)c3[nH]2)COc2ccccc21	Active

species: Mus musculus; assay: Protection against TNF-induced SIRS in C57BL/6J mouse assessed as reduction in body temperature loss preincubated for 1 hr followed by mTNF-alpha addition measured after 6 hrs […]; assay type: functional, organism-based; conditions: time 7.0 hrs

Compound	Activity
CN1C(=O)[C@@H](NC(=O)c2n[nH]c(Cc3ccccc3)n2)COc2ccccc21 [GSK2982772]	Active
CN1C(=O)[C@@H](NC(=O)c2cc3cccc(-c4ccccc4)c3[nH]2)COc2ccccc21	Active

tested on: Mus musculus; assay: Protection against mTNF-alpha induced SIRS in C57BL/6J mouse assessed as increase in survival rate at 10 mg/kg preincubated for 1 hr followed by mTNF-alpha addition measured upto 60 hrs; assay type: functional; conditions: time <= 61 hrs

Compound	Activity
CN1C(=O)[C@@H](NC(=O)c2cc3cccc(-c4ccccc4)c3[nH]2)COc2ccccc21	100%

biological target: T1, Receptor-interacting serine/threonine-protein kinase 3 (Homo sapiens, UniProt Q9Y572); conditions: HT-29, dose 100.0 nM, time 2-6 hrs
Target sequence in this assay (Q9Y572 whole entry, looked up): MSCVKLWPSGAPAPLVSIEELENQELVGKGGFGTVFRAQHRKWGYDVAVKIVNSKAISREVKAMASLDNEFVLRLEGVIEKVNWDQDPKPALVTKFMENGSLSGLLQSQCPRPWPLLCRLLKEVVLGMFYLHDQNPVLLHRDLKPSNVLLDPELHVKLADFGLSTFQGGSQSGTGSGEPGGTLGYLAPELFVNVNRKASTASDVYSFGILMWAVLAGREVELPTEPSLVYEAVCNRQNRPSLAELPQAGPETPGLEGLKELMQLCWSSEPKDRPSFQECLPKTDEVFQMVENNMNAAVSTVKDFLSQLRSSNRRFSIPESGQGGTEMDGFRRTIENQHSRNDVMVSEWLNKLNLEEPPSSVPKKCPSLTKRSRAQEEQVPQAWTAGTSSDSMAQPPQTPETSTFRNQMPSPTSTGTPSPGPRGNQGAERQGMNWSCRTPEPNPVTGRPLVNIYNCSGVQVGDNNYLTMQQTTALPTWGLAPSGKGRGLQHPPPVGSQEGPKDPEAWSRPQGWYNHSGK
Description: Inhibition of RIPK3 phosphorylation in TSZ induced human HT-29 cells at 100 nM incubated for 2 to 6 hrs by immunoblotting analysis

Compound	inhibition
CN1C(=O)[C@@H](NC(=O)c2cc3cccc(-c4ccccc4)c3[nH]2)COc2ccccc21	Active

biological target: T2, Mixed lineage kinase domain-like protein (Homo sapiens) (UniProt Q8NB16); assay: Inhibition of MLKL phosphorylation in TSZ induced human HT-29 cells at 100 nM incubated for 2 to 6 hrs by immunoblotting analysis; assay type: cell-based; conditions: time 2-6 hrs
T2 sequence (whole entry): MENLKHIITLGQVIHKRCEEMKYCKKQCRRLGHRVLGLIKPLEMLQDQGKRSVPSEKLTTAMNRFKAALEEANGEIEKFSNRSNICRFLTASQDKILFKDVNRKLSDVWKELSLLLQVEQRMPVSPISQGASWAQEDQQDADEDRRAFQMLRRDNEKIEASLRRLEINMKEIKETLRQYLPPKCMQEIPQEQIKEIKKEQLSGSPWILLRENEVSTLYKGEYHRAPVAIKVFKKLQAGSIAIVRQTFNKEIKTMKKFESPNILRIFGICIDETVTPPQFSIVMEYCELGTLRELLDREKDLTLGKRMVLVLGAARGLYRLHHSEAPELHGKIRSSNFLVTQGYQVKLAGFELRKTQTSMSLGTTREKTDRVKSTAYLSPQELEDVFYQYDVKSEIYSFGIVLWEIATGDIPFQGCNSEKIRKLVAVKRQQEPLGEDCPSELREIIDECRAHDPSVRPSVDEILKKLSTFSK

Compound	inhibition
CN1C(=O)[C@@H](NC(=O)c2cc3cccc(-c4ccccc4)c3[nH]2)COc2ccccc21	Active

tested on: HT-29; assay: Anti-necroptotic activity against TSZ induced necroptosis in human HT-29 cells incubated for 12 hrs; assay type: functional, cell-based; conditions: not given

Compound	Activity
CN1C(=O)[C@@H](NC(=O)c2cc3cccc(-c4ccccc4)c3[nH]2)COc2ccccc21	Dose-Dependent Effect

tested on: U-937; assay: Anti-necroptotic activity against TSZ induced necroptosis in human U-937 cells preincubated with compound followed by TSZ addition for 12 hrs; assay type: functional, cell-based; conditions: not given

Compound	Activity
CN1C(=O)[C@@H](NC(=O)c2cc3cccc(-c4ccccc4)c3[nH]2)COc2ccccc21	Dose-Dependent Effect

biological target: T3, Receptor-interacting serine/threonine-protein kinase 1 (Homo sapiens) (UniProt Q13546); assay: Inhibition of RIPK1 phosphorylation in TSZ induced human HT-29 cells incubated for 6 hrs by immunoblotting analysis; assay type: cell-based; conditions: dose 25-100 nM
T3 sequence (whole entry): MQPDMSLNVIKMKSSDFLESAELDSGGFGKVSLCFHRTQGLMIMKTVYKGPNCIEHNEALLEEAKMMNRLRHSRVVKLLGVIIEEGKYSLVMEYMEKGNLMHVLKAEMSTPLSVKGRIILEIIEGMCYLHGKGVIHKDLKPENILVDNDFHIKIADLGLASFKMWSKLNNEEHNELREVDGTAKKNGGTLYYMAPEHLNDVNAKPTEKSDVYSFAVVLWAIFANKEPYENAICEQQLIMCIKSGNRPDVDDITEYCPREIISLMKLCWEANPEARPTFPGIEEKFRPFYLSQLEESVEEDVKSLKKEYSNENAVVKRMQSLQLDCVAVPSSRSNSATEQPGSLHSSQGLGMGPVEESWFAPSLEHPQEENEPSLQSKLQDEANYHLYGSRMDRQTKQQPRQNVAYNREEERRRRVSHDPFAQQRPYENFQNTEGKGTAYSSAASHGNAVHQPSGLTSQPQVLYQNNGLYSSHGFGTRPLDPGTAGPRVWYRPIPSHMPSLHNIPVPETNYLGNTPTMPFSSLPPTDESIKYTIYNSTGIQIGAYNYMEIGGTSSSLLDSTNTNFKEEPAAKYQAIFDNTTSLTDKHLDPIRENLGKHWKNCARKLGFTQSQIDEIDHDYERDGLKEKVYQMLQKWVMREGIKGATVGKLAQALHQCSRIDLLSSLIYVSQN

Compound	inhibition
CN1C(=O)[C@@H](NC(=O)c2cc3cccc(-c4ccccc4)c3[nH]2)COc2ccccc21	Dose-Dependent Effect

biological target: T4, Receptor-interacting serine/threonine-protein kinase 1 (Homo sapiens, UniProt Q13546); assay: Binding affinity to RIPK1 (unknown origin); conditions: not given
T4 sequence (Q13546 whole entry): T3 sequence (whole entry)

Compound	Kd
CN1C(=O)[C@@H](NC(=O)c2cc3cccc(-c4cc(F)ccc4F)c3[nH]2)COc2ccccc21	190 nM
CN1C(=O)[C@@H](NC(=O)c2cc3cccc(-c4ccccc4)c3[nH]2)COc2ccccc21	190 nM
CN1C(=O)[C@@H](NC(=O)c2cc3cccc(-c4ccccc4F)c3[nH]2)COc2ccccc21	190 nM
Cc1ccccc1-c1cccc2cc(C(=O)N[C@H]3COc4ccccc4N(C)C3=O)[nH]c12	270 nM
CN1C(=O)[C@@H](NC(=O)c2cc3cccc(-c4ccc(F)cc4F)c3[nH]2)COc2ccccc21	200 nM
CN1C(=O)[C@@H](NC(=O)c2cc3cccc(-c4cccc(F)c4F)c3[nH]2)COc2ccccc21	260 nM

biological target: T1, Receptor-interacting serine/threonine-protein kinase 3; assay: Binding affinity to RIPK3 (unknown origin); conditions: not given
Target sequence in this assay (Q9Y572 whole entry): as the sequence (Q9Y572 whole entry, looked up) above

Compound	Kd
CN1C(=O)[C@@H](NC(=O)c2cc3cccc(-c4ccccc4)c3[nH]2)COc2ccccc21	2400 nM

tested on: not listed separately; assay: Cytotoxicity against human HT-29 cells assessed as reduction in cell viability; assay type: toxicity, cell-based; conditions: not given

Compound	CC50
CN1C(=O)[C@@H](NC(=O)c2cc3cccc(-c4cccc5ccccc45)c3[nH]2)COc2ccccc21	> 100000 nM
CN1C(=O)[C@@H](NC(=O)c2cc3cccc(-c4cc(F)ccc4F)c3[nH]2)COc2ccccc21	> 100000 nM
Cc1ccc(-c2cccc3cc(C(=O)N[C@H]4COc5ccccc5N(C)C4=O)[nH]c23)cc1	> 100000 nM
CN1C(=O)[C@@H](NC(=O)c2cc3cccc(-c4ccccc4)c3[nH]2)COc2ccccc21	> 100000 nM
CN1C(=O)[C@@H](NC(=O)c2cc3cccc(-c4c(F)cccc4F)c3[nH]2)COc2ccccc21	> 100000 nM
CN1C(=O)[C@@H](NC(=O)c2cc3cccc(-c4ccccc4F)c3[nH]2)COc2ccccc21	> 100000 nM
CN1C(=O)[C@@H](NC(=O)c2cc3cccc(-c4ccc(C(F)(F)F)cc4)c3[nH]2)COc2ccccc21	> 100000 nM
Cc1ccc(-c2cccc3cc(C(=O)N[C@H]4COc5ccccc5N(C)C4=O)[nH]c23)c(C)c1	> 100000 nM
CN1C(=O)[C@@H](NC(=O)c2cc3cccc(-c4ccc(F)cc4)c3[nH]2)COc2ccccc21	> 100000 nM
CN1C(=O)[C@@H](NC(=O)c2cc3cccc(-c4ccc(-c5ccccc5)cc4)c3[nH]2)COc2ccccc21	> 100000 nM
Cc1ccccc1-c1cccc2cc(C(=O)N[C@H]3COc4ccccc4N(C)C3=O)[nH]c12	> 100000 nM
CN1C(=O)[C@@H](NC(=O)c2cc3cccc(-c4ccc(F)c(F)c4)c3[nH]2)COc2ccccc21	> 100000 nM
CN1C(=O)[C@@H](NC(=O)c2cc3cccc(-c4ccc(F)cc4F)c3[nH]2)COc2ccccc21	> 100000 nM
CN1C(=O)[C@@H](NC(=O)c2cc3cccc(-c4cccc(F)c4F)c3[nH]2)COc2ccccc21	> 100000 nM

biological target: T3, Receptor-interacting serine/threonine-protein kinase 1 (Homo sapiens); assay: Inhibition of RIPK1 phosphorylation in TSZ induced human HT-29 cells at 100 nM incubated for 2 to 6 hrs by immunoblotting analysis; assay type: cell-based; conditions: time 2-6 hrs

Compound	inhibition
CN1C(=O)[C@@H](NC(=O)c2cc3cccc(-c4ccccc4)c3[nH]2)COc2ccccc21	Active

biological target: T2, Mixed lineage kinase domain-like protein (Homo sapiens); assay: Inhibition of MLKL phosphorylation in TSZ induced human HT-29 cells incubated for 6 hrs by immunoblotting analysis; assay type: cell-based; conditions: dose 25-100 nM

Compound	inhibition
CN1C(=O)[C@@H](NC(=O)c2cc3cccc(-c4ccccc4)c3[nH]2)COc2ccccc21	Dose-Dependent Effect

tested on: Mus musculus; assay: Protection against mTNF-alpha induced SIRS in C57BL/6J mouse assessed as increase in survival rate at 2.5 mg/kg preincubated for 1 hr followed by mTNF-alpha addition measured upto 60 hrs; assay type: functional; conditions: time <= 61 hrs

Compound	Activity
CN1C(=O)[C@@H](NC(=O)c2cc3cccc(-c4ccccc4)c3[nH]2)COc2ccccc21	75%

tested on: HT-29; assay: Anti-necroptotic activity against TSZ induced necroptosis in human HT-29 cells preincubated for 12 hrs followed by TSZ addition by CellTiter-Glo luminescent cell viability assay; assay type: functional, cell-based; conditions: not given

Compound	EC50
CN1C(=O)[C@@H](NC(=O)c2n[nH]c(Cc3ccccc3)n2)COc2ccccc21 [GSK2982772]	4.1 nM
CN1C(=O)[C@@H](NC(=O)c2cc3cccc(-c4cccc5ccccc45)c3[nH]2)COc2ccccc21	956 nM
CN1C(=O)[C@@H](NC(=O)c2cc3cccc(-c4cc(F)ccc4F)c3[nH]2)COc2ccccc21	88.5 nM
Cc1ccc(-c2cccc3cc(C(=O)N[C@H]4COc5ccccc5N(C)C4=O)[nH]c23)cc1	1250 nM
CN1C(=O)[C@@H](NC(=O)c2cc3cccc(-c4ccccc4)c3[nH]2)COc2ccccc21	16.2 nM
CN1C(=O)[C@@H](NC(=O)c2cc3cccc(-c4c(F)cccc4F)c3[nH]2)COc2ccccc21	2170 nM
CN1C(=O)[C@@H](NC(=O)c2cc3cccc(-c4ccccc4F)c3[nH]2)COc2ccccc21	32.3 nM
CN1C(=O)[C@@H](NC(=O)c2cc3cccc(-c4ccc(C(F)(F)F)cc4)c3[nH]2)COc2ccccc21	3850 nM
Cc1ccc(-c2cccc3cc(C(=O)N[C@H]4COc5ccccc5N(C)C4=O)[nH]c23)c(C)c1	4360 nM
CN1C(=O)[C@@H](NC(=O)c2cc3cccc(-c4ccc(F)cc4)c3[nH]2)COc2ccccc21	356 nM
CN1C(=O)[C@@H](NC(=O)c2cc3cccc(-c4ccc(-c5ccccc5)cc4)c3[nH]2)COc2ccccc21	438 nM
Cc1ccccc1-c1cccc2cc(C(=O)N[C@H]3COc4ccccc4N(C)C3=O)[nH]c12	45.4 nM
CN1C(=O)[C@@H](NC(=O)c2cc3cccc(-c4ccc(F)c(F)c4)c3[nH]2)COc2ccccc21	128 nM
CN1C(=O)[C@@H](NC(=O)c2cc3cccc(-c4ccc(F)cc4F)c3[nH]2)COc2ccccc21	392 nM
CN1C(=O)[C@@H](NC(=O)c2cc3cccc(-c4cccc(F)c4F)c3[nH]2)COc2ccccc21	145 nM

biological target: T1, Receptor-interacting serine/threonine-protein kinase 3; conditions: HT-29, dose 25-100 nM, time 6.0 hrs
Target sequence in this assay (Q9Y572 whole entry, looked up): as the sequence (Q9Y572 whole entry, looked up) above

Compound	inhibition
CN1C(=O)[C@@H](NC(=O)c2cc3cccc(-c4ccccc4)c3[nH]2)COc2ccccc21	Dose-Dependent Effect

tested on: HT-29; assay: Anti-necroptotic activity against TCZ induced necroptosis in human HT-29 cells incubated for 16 hrs; assay type: functional, cell-based; conditions: not given

Compound	Activity
CN1C(=O)[C@@H](NC(=O)c2cc3cccc(-c4ccccc4)c3[nH]2)COc2ccccc21	Active

tested on: Mus musculus; assay: Protection against mTNF-alpha induced SIRS in C57BL/6J mouse assessed as increase in survival rate at 20 mg/kg preincubated for 1 hr followed by mTNF-alpha addition measured upto 60 hrs; assay type: functional; conditions: time <= 61 hrs

Compound	Activity
CN1C(=O)[C@@H](NC(=O)c2n[nH]c(Cc3ccccc3)n2)COc2ccccc21 [GSK2982772]	90%
